Source: patent US20250154180A1, “CRK-LIKE (CRKL) ADAPTOR PROTEIN INHIBITORS AND METHODS OF MAKING AND USING THE SAME” (Rutgers, The State University of New Jersey, priority 2022, published 2025)
Entries after “also recorded” stand apart in the source; their conditions may differ. Where a name gives a salt, the structure may show the parent alone. Read-outs that look alike come from different tables or passages of the source. Each block holds one molecule with its values, some of them ahead of it.

Legend:
[1] = Thermodynamic solubility; assay type: physicochemical; details: thermodynamic from solid
Description: In this example, solubility measurement assays were performed using a phosphate buffer (also referred to as “PB”) system and a water system to evaluate thermodynamic solubility. The PB system was at a pH of 7.4 to mimic in vivo environments. For the PB system, the values were determined to be NC5: Thermodynamic Solubility pH=7.4<0.42 μg/mL; Compound III: Thermodynamic Solubility pH=7.4<0.48 μg/mL; and Compound I: Thermodynamic Solubility pH=7.4<0.48 μg/mL. Results for the water assay were as follows: NC5: Thermodynamic Solubility Water<0.42 μg/mL; Compound III: Thermodynamic Solubility Water<0.48 μg/mL; and Compound I: Thermodynamic Solubility Water<0.48 μg/mL.

[2] = system: Sk-Hep1 cells; experiment: Growth inhibition of Sk-Hep1 cells (cell culture images); assay type: cell-based; details: 5 μM, 24 hours
[3] = system: BXPC3 cells; experiment: XTT cell viability, BXPC3; assay type: cell-based; details: 24 and 48 hours
Description: (§1) FIGS. 8A-8C show results using MDA-MB-231 cells (FIG. 8A) or BXPC3 cells (FIG. 8B), wherein the cells were treated with 5 μM of NC5, Compound III (referred to as “NC5-140-1” in FIGS. 8A-8C), and Compound I (referred to as “NC5-140-2” in FIGS. 8A-8C) for 24-48 hours, wherein the XTT assay was used to determine cell viability. The symbol indicates the significance of NC5 vs. Compounds I and/or III; *p<0.05. Data represent mean±SEM.
(§2) Compound embodiments, compound III and compound I, were also made and evaluated. TNBC cells and PDAC cells were treated with a serial dose of original NC5 and modified NC5 derivatives for 24 and 48 hours. The cell viability will be measured by XTT assay. […] Compound III is referred to as “NC5-140-1” and Compound I is referred to as “NC5-140-2” in FIGS. 8A-8C.

[4] = system: MDA-MB-231 cells; experiment: XTT cell viability, MDA-MB-231; assay type: cell-based; details: 24 and 48 hours
Description: as §1, §2

[5] = system: Sk-Hep1 tumor; experiment: HCC Sk-Hep1 xenograft model; assay type: in vivo, NSG mice; details: four-group study, 5.0 μg/g oral gavage
Source text: To further test whether the tumor growth inhibition effect of NC5 applied to other solid tumors, the HCC-Sk-Hep1cell line and PDAC-BXPC3 cell line xenograft models were used. Subcutaneous injection of 1.5×10^6 SK-Hep1 or BXPC3 cells in NSG mice, Six-ten days after tumor cell injection, the palpable tumor in NSG mice was confirmed.
To test the effects of the disclosed compounds on the xenograft mouse models, the HCC-Sk-Hep1 cell line xenograft model in NSG mice and 4T1-Luc orthotopic syngeneic breast tumor model in Balb/c mice was used. After confirming the palpable tumor in NSG or Balb/c mice. […] Compound III is referred to as “NC5-140-1” and Compound I is referred to as “NC5-140-2” in FIGS. 11A-11C.

[6] = Mouse toxicity assays (serum ALT, AST, BUN, creatinine); assay type: in vivo, mice; details: at the indicated dosages
Description: Three mice were treated in each group. Blood samples were collected from every mouse in pre-treatment and post-treatment (20 days), and serum was obtained for alanine aminotransferase (ALT, SGPT, FIG. 12A), aspartate aminotransferase (AST, SGOT, FIG. 12B), blood urea nitrogen (BUN, FIG. 12C), and creatinine (FIG. 12D) tests to monitor liver and kidney toxicity. The normal Reference Ranges for ALT is 17-77 IU/L; AST is 54-298 IU/L; BUN is 18.5-33.3 mg/dL; Cr is 0-0.40 mg/dL.
Mouse toxicity assays—Blood was collected from the submandibular facial vein following IACUC guidelines (CMP, Houston Methodist Research Institute and Rutgers University) before and 20-day after the drug treatment. The Department of Veterinary Medicine & Surgery, MD Anderson Cancer Center, performed the clinical biochemistry and pharmacokinetics tests. Blood serum chemistry analysis included alanine transaminase (ALT), aspartate transaminase (AST), blood urea nitrogen (BUN), and creatinine level measurements.
Alanine aminotransferase (ALT, SGPT), aspartate aminotransferase (AST, SGOT), blood urea nitrogen (BUN), and creatinine levels were examined to determine liver and kidney toxicity of Pomiferin treatments in vivo. […] Nevertheless, these changes have no physiological significance because ALT, AST and BUN levels in all mice were within normal mouse reference ranges. […]

[7] = system: CrkL (phosphorylation at Y207 by Ab1); experiment: AlphaScreen of Ab1 phosphorylation of CrkL at Y207; assay type: biochemical; details: compared to DMSO; positive control in the five libraries
[8] = target: CrkL (Homo sapiens, UniProt P46109); assay type: biochemical
CrkL, sequence (P46109 whole entry, the tested form may be a part): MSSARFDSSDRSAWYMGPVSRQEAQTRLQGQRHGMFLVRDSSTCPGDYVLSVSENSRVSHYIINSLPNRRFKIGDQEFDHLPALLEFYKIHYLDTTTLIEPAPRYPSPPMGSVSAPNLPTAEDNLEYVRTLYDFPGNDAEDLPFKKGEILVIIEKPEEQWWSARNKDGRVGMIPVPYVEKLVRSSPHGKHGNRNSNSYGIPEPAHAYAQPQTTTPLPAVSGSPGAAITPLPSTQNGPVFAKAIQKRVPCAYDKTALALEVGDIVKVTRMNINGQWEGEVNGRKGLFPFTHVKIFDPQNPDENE
Source text: Single-molecule Fluorescence Resonance Energy Transfer (smFRET)—Single-molecule Fluorescence Resonance Energy Transfer (smFRET) was applied to monitor conformations of single molecules. CrkL has two cysteines (a relatively rare amino acid), one in its SH2 and another in SH3C domains. CrkL was mixed with a mixture of equal amounts of Alexa555-maleimide and Alexa647-maleimide (Invitrogen, USA) (10× over protein concentration) to randomly label the two cysteines. The labeled protein was purified from an unreacted dye by gel filtration. Molecules with exactly one donor and acceptor are identified in single-molecule data analysis and used for further analysis. […] The FRET change between non-phosphorylated CrkL and phosphorylated CrkL was measured. The dye-labeled protein was used in in vitro kinase assays with different drugs treatments as described above. smFRET measurements were performed with a prism-type total internal refection microscope (TIRF) where FRET efficiency is calculated from measured donor and acceptor intensities (Id and Ia, respectively) by FRET=Ia/(Id+Ia), as described previously. To surface immobilize 6×His tagged CrkL, the protein was added to the biotinylated 6×His antibody (Thermo Scientific Cat #: MA1-80087) bound to streptavidin, which was adsorbed to a quartz slide. A lipid bilayer was used to passivate the quartz surface. Phosphorylation was performed on the immobilized Crk in situ.
In intramolecular smFRET, non-radiative energy transfer occurs when two fluorophores attached to different parts of one molecule move close together. […] A cysteine-maleimide-based chemistry was used to label both CrkL and mutant (non-phosphorylatable) CrkL-Y207F. CrkL has a cysteine (a relatively rare amino acid) in its SH2 (labeled with AlexaFluor555) and SH3C (labeled with AlexaFluor647). […] Western Blot (WB) and immunoprecipitation (IP) was used to verify that labeled proteins retain the same gross functional properties as wild-type CrkL (e.g., are phosphorylatable and capable of binding SH2 and SH3 ligands). Briefly, site-specific labeled CrkL was mixed with Ab1 in the presence of Mg^2+ and ATP. A single AlphaScreen-identified candidate inhibitor was then added per assay.

[9] = system: IL-2 production from human PBMCs; experiment: IL-2 ELISA, PBMCs; assay type: cell-based
Description: IL-2 ELISA—IL-2 in vitro enzyme-linked immunosorbent assay (ELISA) was used to measure human IL-2 productions. This assay was conducted per the user manual from the kit. In brief, human PBMCs were cultured in R10 medium with 0.5 μg/ml PHA. Then, 100 μl of the standard and sample was added to each well and incubated at 4° C. overnight. A prepared biotin antibody (100 μl) was added to each well and incubated for 1 hour at room temperature. Then, 100 μl prepared streptavidin solution was added and incubated for 45 minutes at room temperature. TMB one-step substrate reagent (100 μl) was then added to each well and incubated for 30 minutes at room temperature. Stop solution (50 μl) was then added to each well, and the results were quantified at 450 nm by Infinite M1000 Pro Plate Reader (Tecan, Switzerland) immediately.
Previous studies have shown that phosphorylated CrkL inhibits immune cell functions. It was then evaluated whether a pCrkL inhibitor could restore immune cell functions. To test this, the production of IL-2 from human PBMCs treated with different concentrations of Pomiferin was quantitated. Phytohemagglutinin (PHA) was used to stimulate the secretion of IL-2 as a positive control group. […] Similar results were obtained from the third donor (FIG. 5B, lower panel).

[10] = system: MDA-MB-231 cells; experiment: MTT proliferation assay, MDA-MB-231; assay type: cell-based
Description: (§3) MTT assay—The MTT assay was used to detect cell proliferation. Briefly, cells were plated in a 96-well plate at a density of 50,000 cells/well in 200 μl of culture medium with candidate drugs to be tested (DMSO as a negative control). The treated cells were incubated for four hours a 37° C. with a 5% CO2 incubator to allow dark crystals to form at the bottom of the wells. After culturing for 48 hours, […] of MTT reagent was added to each well and mixed gently for one minute. After aspirating the culture medium from each well, 100 μl of crystal dissolving solution was added to each well and incubated for 10 minutes at RT. The signal was quantified by measuring the absorbance in each sample at 570 nm using a microplate reader.
(§4) Compound II is referred to as “NC5-SO2F” in FIGS. 7A-7C.
Cell proliferation was first determined by MTT assay as confirmation. […] CrkL is known to mediate the activation of both Raf/ERK and PI3K pathways. So, proteins that relate to these two pathways were utilized.

[11] = system: PDAC cells BXPC3; experiment: MTT assay, BXPC3; assay type: cell-based; details: 5 uM
Description: as §3, §4

[12] = system: BXPC3 cells; experiment: Propidium iodide staining, BXPC3; assay type: cell-based; details: various concentrations
Source text: as §4

Compound: CC(C)=CCc1c2c(c(O)c3c(=O)c(-c4ccc5c(c4)OS(=O)(=O)O5)coc13)C=CC(C)(C)O2 [Compound I]
solubility thermodynamic ([1]; aqueous buffer, phosphate buffer (PB) system, pH 7.4, read-out: Thermodynamic Solubility pH=7.4): < 0.48 µg/mL
solubility thermodynamic ([1]; water system, read-out: Thermodynamic Solubility Water): < 0.48 µg/mL
toxic effect compared with NC5 (growth inhibition) [2]: better toxic effect than NC5
toxic effect compared with NC5 (XTT viability) [3]: better toxic effect than NC5
toxic effect compared with NC5 (XTT viability) [4]: comparable toxic effect as NC5
tumor growth [5]: inhibit tumor growth
median survival ([5]; vehicle 26 days): 28.5 days

inhibition of the higher FRET caused by Ab1 (pCrkL) ([8]; CrkL + Ab1, Mg2+ and ATP): inhibited
FRET signal ([8]; CrkL about 0.4, CrkL+Ab1 about 0.6): 0.4
Compound: Cc1ccc(NC(=O)c2ccc(CN3CCN(C)CC3)cc2)cc1Nc1nccc(-c2cccnc2)n1 [Gleevec, imatinib mesylate]
damage to the liver and kidneys [6]: little to no damage to the liver and kidneys
Alpha signal decrease [7]: 80-90%
IL2 secretion ([9]; PBMCs from three healthy donors, treated overnight): did not inhibit IL2 secretion
IL-2 production ([9]; first donor, compared to DMSO): decreased IL-2 production

Compound: CC(C)=CCc1c2c(c3occ(-c4ccc5c(c4)OS(=O)(=O)O5)c(=O)c3c1OS(=O)(=O)F)C=CC(C)(C)O2 [Compound II]
toxicity compared with NC5 (MTT viability) ([10]; 5 μM): increased toxicity
killing effect compared with NC5 (MTT) ([10]; different concentrations): comparable killing effect as NC5
killing effect / toxicity compared with NC5 (MTT) [11]: stronger killing effect than NC5; also recorded: increased toxicity
killing effect by propidium iodide staining [12]: killing effect was further confirmed
